Consider three compounds from paper PMC8422164, “A comparison of three mucus-secreting airway cell lines (Calu-3, SPOC1 and UNCN3T) for use as biopharmaceutical models of the nose and lung” (European Journal of Pharmaceutics and Biopharmaceutics, 2021).

The subject of data set [1] is UNCN3T cells. The experiment in a line: TEER of UNCN3T cells before and after AMP-PNP. The note with it: AMP-PNP 100 μM.
The test system of data set [2] is UNCN3T cells. The experiment in a line: Mucin secretion (ELLA) in response to inhaled drugs, UNCN3T on Geltrex-coated plastic. It counts as cell-based, human. As to the method:
Wells were then washed three times with phosphate buffered saline (PBS) containing 0.05 % v/v Tween, 0.5 % w/v bovine gelatin type B (Sigma Aldrich), and blocked by incubation with PBS containing 1.0 % w/v gelatin at 37 °C for 1 h. […] Wells with samples from UNC[…] cells were incubated with biotinylated-Helix pomatia agglutinin prepared in the blocking solution. These wells were then washed before incubation with HRP-labelled streptavidin. Finally, plates containing samples from all cell lines were washed repeatedly and developed by the addition of substrate solution which consisted of o-phenylene diamine (Sigma […] tablet) prepared according to manufacturer's instructions, for 3 min at room temperature, after which the reaction was terminated by the addition of 20% (v/v) H2SO4. The absorbance at 492 nm was measured using an Ascent MultiskanTM plate reader (Thermo Fisher Scientific). The absorbance of the samples was compared with known mucin standards, purified by two rounds of density gradient ultracentrifugation, as described by […] et al., from the sputum of a volunteer with chronic obstructive pulmonary disease. Ethical approval was obtained from the University of Brighton School of Pharmacy and Biomolecular Sciences Ethics Committee, under reference PABSREC 0509, and informed consent was obtained from the volunteer.

For data set [3], the system named is UNCN3T cells. In words: Enhancement of mucin secretion using AMP-PNP (Secretagogue model), ELLA, UNCN3T. It counts as cell-based, human. How it is done:
Cells cultured on inserts were arbitrarily divided into two groups termed 'low mucus' and 'high mucus'. […] Plates were kept on a shock-absorbing foam pad to prevent inadvertent mechanical stimulation of mucin secretion. […] Washes were stored at 4 °C until mucin secretion could be determined using an ELLA (on the day of treatment). At 10, 20 and 30 min, three further washes were performed and the average mucin content used to establish baseline mucin secretion. […] Each AMP-PNP/TB apical solution was changed (“like for like”) at 10-minute intervals. […] Wells were then washed three times with phosphate buffered saline (PBS) containing 0.05 % v/v Tween, 0.5 % w/v bovine gelatin type B (Sigma Aldrich), and blocked by incubation with PBS containing 1.0 % w/v gelatin at 37 °C for 1 h. […] Wells with samples from UNC[…] cells were incubated with biotinylated-Helix pomatia agglutinin prepared in the blocking solution. These wells were then washed before incubation with HRP-labelled streptavidin. Finally, plates containing samples from all cell lines were washed repeatedly and developed by the addition of substrate solution which consisted of o-phenylene diamine (Sigma […] tablet) prepared according to manufacturer's instructions, for 3 min at room temperature, after which the reaction was terminated by the addition of 20% (v/v) H2SO4. The absorbance at 492 nm was measured using an Ascent MultiskanTM plate reader (Thermo Fisher Scientific). The absorbance of the samples was compared with known mucin standards, purified by two rounds of density gradient ultracentrifugation, as described by […] et al., from the sputum of a volunteer with chronic obstructive pulmonary disease. Ethical approval was obtained from the University of Brighton School of Pharmacy and Biomolecular Sciences Ethics Committee, under reference PABSREC 0509, and informed consent was obtained from the volunteer.

A further data set deals with Calu-3 cells. The experiment in a line: Enhancement of mucin secretion using AMP-PNP (Secretagogue model), ELLA, Calu-3. Particulars: Calu-3, AMP-PNP 100 μM, apical. It counts as cell-based, human. As to the method:
Cells cultured on inserts were arbitrarily divided into two groups termed 'low mucus' and 'high mucus'. […] Plates were kept on a shock-absorbing foam pad to prevent inadvertent mechanical stimulation of mucin secretion. […] Washes were stored at 4 °C until mucin secretion could be determined using an ELLA (on the day of treatment). At 10, 20 and 30 min, three further washes were performed and the average mucin content used to establish baseline mucin secretion. […] Each AMP-PNP/TB apical solution was changed (“like for like”) at 10-minute intervals. […] Wells were then washed three times with phosphate buffered saline (PBS) containing 0.05 % v/v Tween, 0.5 % w/v bovine gelatin type B (Sigma Aldrich), and blocked by incubation with PBS containing 1.0 % w/v gelatin at 37 °C for 1 h. […] Wells with samples from UNC[…] cells were incubated with biotinylated-Helix pomatia agglutinin prepared in the blocking solution. These wells were then washed before incubation with HRP-labelled streptavidin. […] The absorbance at 492 nm was measured using an Ascent MultiskanTM plate reader (Thermo Fisher Scientific). The absorbance of the samples was compared with known mucin standards, purified by two rounds of density gradient ultracentrifugation, as described by […] et al., from the sputum of a volunteer with chronic obstructive pulmonary disease. […]

Data set [4] has as its system UNCN3T cells. The experiment in a line: Cytokine release (ELISA) in response to inhaled drugs, UNCN3T. As to the method: SPOC1 or UNCN3T cells were seeded onto 24-well tissue culture treated plates, pre-coated with a 1/20 dilution of Geltrex™. Cells were seeded at 5 × 10^4 cells/well and grown to confluence in the appropriate maintenance medium. The cells were washed four times (20 min per wash) with TB appropriate to each cell line after which the cells were incubated for 30 min at 37 °C 5% CO2/95% air in control or drug solutions prepared in the appropriate transport buffer. […] Samples from UNCN3T cells (human origin) were analysed for IL-6 and IL-8. Cytokines and mucins were quantified using ELISAs (Legend Max, BioLegend San Diego, CA) according to the manufacturer’s instructions and ELLA respectively.
Background: ELISA stands for enzyme-linked immunosorbent assay.

Setting [5] is: UNCN3T control wells treated with 100 μM AMP-PNP at 100 min, by 120 min, data not shown.

As to `Nc1ncnc2c1ncn2[C@@H]1O[C@H](COP(=O)([O-])OP(=O)([O-])NP(=O)([O-])[O-])[C@@H](O)[C@H]1O.[Li+].[Li+].[Li+].[Li+]` [AMP-PNP, adenylyl-imidodiphosphate, tetralithium salt], the “Effect upon TEER” value in the data set with UNCN3T cells [1] was “no discernible effect”. For the same compound, in the data set on UNCN3T cells [1] (before treatment 229 ± 20), the “Mean TEER after treatment” value was 219 ± 19 Ω.cm^2. The compound further yielded a Mucin secretion with UNCN3T cells [2] (UNCN3T on Geltrex-coated plastic, AMP-PNP 100 μM, 30 min, medium alone 0.94 ± 0.04) of 3.22 ± 0.24 ng/well. In addition, the “Fold increase in mucin secretion” value in the data set with UNCN3T cells [3] (setting [5]) is on record as 1.5 fold; in the data set with UNCN3T cells [3] (UNCN3T, AMP-PNP 100 μM, vs baseline) it was 2 fold. The “Mucin level after AMP-PNP” value in the data set on UNCN3T cells [3] (setting [5]) is given as 4.34 ± 0.83 ng/well; in the data set on UNCN3T cells [3] (UNCN3T, AMP-PNP 100 μM, baseline 2.91 ± 0.92) it was 5.44 ± 1.63 ng/well. The figures for the “Effect on quantity of mucin secreted” value in the data set with Calu-3 cells and in the data set on Calu-3 cells (listed as adenylyl-imidodiphosphate) were “no significant increase” and “not”, respectively.

Turning to `O=S(=O)([O-])[O-].[O]=[V+2]` [VOSO4, Vanadium (IV) oxide sulfate], the “IL-6 release, fold that of culture medium” value in the data set on UNCN3T cells [4] is recorded as 66 fold. The compound also yielded an IL-6 release with UNCN3T cells [4] (VOSO4 20 μg mL^−1, 30 min, medium alone 1.9 ± 0.3) of 124.0 ± 6.5 pg/mL. Further, in the data set with UNCN3T cells [4] (VOSO4 20 μg mL^−1, 30 min, medium alone 12.5 ± 0.6), the IL-8 release amounted to 251.1 ± 14.5 pg/mL.

On to `CCCC1O[C@@H]2C[C@H]3[C@@H]4CCC5=CC(=O)C=C[C@]5(C)[C@H]4[C@@H](O)C[C@]3(C)[C@]2(C(=O)CO)O1` (some centres unmarked) [budesonide], for which the “Effect on mucin secretion” value in the data set with UNCN3T cells [2] (UNCN3T, inhaled drugs, vs culture medium alone) is on record as “no effect”. Besides, in the data set with UNCN3T cells [4] (20 μM, 30 min), the “Effect on IL-8 release” value is “significantly increased”.
